From article PMC11519904, “Comprehensive Cell Biological Investigation of Cytochalasin B Derivatives with Distinct Activities on the Actin Network” (Journal of Natural Products, 2024)
“And” between values parts separate entries of the source, which are not always exact repeats. Equal values may be shown once. “Also recorded” adds a separate entry of the source. Read-outs that look alike come from different tables or passages of the source.

Legend:
[1] = target: T1, actin (G-actin purified from rabbit skeletal muscle) (Oryctolagus cuniculus, UniProt P68135); experiment: Pyrene actin polymerization assay; format: biochemical; conditions: 2 μM compound, 2 μM actin (5% pyrene-actin), 550 nM actin seeds, after 30 min; control = 100%
T1 construct: 1.5 kg of fresh rabbit skeletal muscle was minced with a meat grinder; from tissue; host or cells: rabbit skeletal muscle (acetone powder)
Description: To rule out that the reduced in cellulo efficacies of 3–5 could instead be explained by an altered membrane permeability of modified compounds or their differential effects on other intracellular factors, pyrene actin polymerization assays[23] were used to analyze potential effects on actin assembly in vitro under defined conditions. Globular actin (G-actin) was purified from rabbit skeletal muscle[24] and fluorescently labeled with pyrene (see description in the Supporting Information). G-actin (2 μM) supplemented with 5% pyrene-labeled actin was added to actin seeds and the respective compound (2 μM) in polymerization buffer to initiate the reaction. Actin polymerization was then assessed by reading out the increasing pyrene fluorescence signal over time (Figure 3).
Acetone powder and G-actin were prepared as described previously.[24] Briefly, 1.5 kg of fresh rabbit skeletal muscle was minced with a meat grinder. Subsequently, the meat was stirred for 15 min in 2.5 L of high-salt buffer (0.5 M KCl, 0.1 M K2HPO4, 2 mM benzamidine, pH 6.4) and then pelleted at 4000g for 10 min. The supernatant was discarded, and the pellet was extracted once more with high-salt buffer and then washed twice with ice-cold ddH2O adjusting the slurry with 1 M Na2CO3 to pH 8.3 until a slight swelling of the pellet became visible. The pellet was then resuspended in ice-cold acetone, stirred for 15 min, and then centrifuged for 10 min at 4000g. The supernatant was discarded, and the pellet was washed once more with acetone before the pellet was broken up and dried in small pieces on aluminum foil under a fume hood overnight. The dried acetone powder was stored at −80 °C for further use.
For purification of G-actin, 5 g of the acetone powder was extracted five times with 50 mL of G-buffer containing 2 mM Tris-HCl, pH 8.0, 0.2 mM CaCl2, 0.5 mM DTT, 0.2 mM Na2ATP, and 0.1 mg/mL NaN3. After each step, the solution was filtered through a fine gauze, yielding a total volume of 250 mL. Subsequently, the solution was centrifuged for 30 min at 20,000g at 4 °C. Actin in the supernatant was then polymerized by addition of 25 × polymerization buffer (250 mM Tris-HCl pH 8.0, 1250 mM KCl, 25 mM Na2ATP, 50 mM MgCl2 × 6 H2O) overnight. Subsequently, KCl was added to a final concentration of 750 mM, followed by centrifugation of the solution at 150,000g at 4 °C for 3 h. The F-actin pellet was then homogenized with 25 mL of G-actin buffer using a potter and then dialyzed against G-buffer. After a final centrifugation step at 150,000g at 4 °C for 3 h, G-actin was purified by size exclusion chromatography using a HiLoad 26/75 Superdex 200 column. Actin concentrations were determined by measuring the absorbance at 290 nm and using an extinction coefficient of 26,600 M^–1 cm^–1.
For pyrene labeling, 10–20 mL of G-actin solution were dialyzed against labeling buffer following the procedure described by Doolittle et al.[38] […]
Pyrene assays were conducted to assess the inhibitory properties of cytochalasins on actin polymerization under defined conditions in vitro using G-actin and actin seeds. The degree of labeling was determined; EC290 nm actin: 26600 1/M × cm; EC342 nm pyrene: 31091 1/M × cm. […]

[2] = test system: filamentous actin (F-actin) in U-2OS wild type (wt) cells; experiment: Actin disruption assay in U-2OS cells (phalloidin staining); format: cell-based, human; conditions: for effect on F-actin network, high dose 1 h: 5 x IC50 (L929), compared to control; for effect on actin and nuclei number, high dose 24 h: 5 x IC50, 24 h, differences between 1 and 24 h treatment
Procedure: For this, the human osteosarcoma cell line U-2OS was treated using concentrations estimated based on previously determined IC50 values in murine L929 fibroblasts (Table 1), referred to as low dose (1 × IC50), and a 5-fold concentration, referred to as high dose (5 × IC50). Reorganization of the F-actin network was also investigated upon high dose treatment, followed by washout and a 1 h recovery phase in fresh medium. The impact on F-actin network organization was visualized using fluorescently labeled phalloidin (Figure 2). […] In addition, the effects on F-actin structures observed upon high dose treatment of all compounds were fully reversible after a 1 h recovery time (Figure 2m–q).
The respective previously determined IC50 values in L929 were used to calculate the treatment concentration (1 × IC50: low dose; 5 × IC50: high dose).[37] DMSO was used as the vehicle control, corresponding to the highest compound volume used in the assay. Coverslips were coated with 25 μg/mL fibronectin (Roche, Mannheim, Germany) diluted 1:40 in phosphate buffered saline (PBS, pH 7.4, Life Technologies), and cells were seeded at a density of 20,000 cells and allowed to spread overnight. CO2-equilibrated culture medium was spiked with the desired compound and DMSO, respectively, in the above-mentioned concentration, and cells were treated with prepared medium for 1 h under cell culture conditions. For long-term experiments, the treatment phase was extended to 24 h. Cells were washed once and fixed afterward using 4% prewarmed paraformaldehyde (PFA) supplied in PBS for 20 min at 37 °C, followed by three additional washing steps with prewarmed PBS buffer. In addition, the reversibility of high dose effects on F-actin network organization was investigated by a washout procedure including three times prewarmed PBS wash steps prior to the addition of fresh medium and a recovery time of 1 h before fixation. In the case of 24 h treatments, the recovery phase was extended to 47 h. Cells were permeabilized with 0.1% Triton X-100 (Bio-Rad Laboratories, Hercules, CA, USA) in PBS buffer for 1 min at room temperature, washed three times with PBS, and stained for F-actin using ATTO-594-coupled phalloidin (ATTO-Tec, Siegen, Germany) diluted in PBS buffer (1:100) for 1 h at room temperature. Coverslips were washed thrice in PBS and mounted in ProLong Diamond antifade mountant (Invitrogen) containing DAPI to probe for nuclear DNA. Cells were recorded using an inverted microscope (Nikon Eclipse Ti2, Tokyo, Japan) equipped with a 60 times Nikon oil immersion objective (Plan Apofluar, 1.4 NA), a pE-4000 (CoolLED, Andover, UK) as light source, and a pco.edge back-illuminated sCMOS camera (Excelitas Technologies, Mississauga, ON, Canada). The microscopy system was operated by and images were recorded with NIS (Nikon) and processed with ImageJ (NIH, Bethesda, MD, USA).

L929 (mouse fibroblast) = experiment: Cytotoxicity assay (MTT), L929; format: cell-based; conditions: Mus musculus, L929, 120 h, read-out: IC50 L929
Procedure: (§1) The cytotoxicity assay was implemented in 96-well flat-bottom microtiter plates following a reported procedure.[21],[22],[33] The mammalian cell lines L929 (mouse fibroblast) and KB3.1 (human cervix carcinoma) were cultivated at 37 °C and 10% CO2 in Dulbecco’s modified minimum essential medium (DMEM, Life Technologies, Carlsbad, CA, USA) supplemented with 10% fetal bovine serum (FBS, Life Technologies). The microtiter plate was filled with 120 μL of suspended cells (50,000/mL), and 60 μL of a serial dilution of the test compound was added. After 5 days of incubation, growth inhibition (IC50) was determined by a colorimetric tetrazolium dye MTT assay.[34] The compounds were dissolved in MeOH (1 mg/mL), MeOH was used as negative control, and epothilone[35] (1 mg/mL) was used as positive control.

[3] = test system: human potassium channel hKv1.5; parameters: method as in PMID 15800051; conditions: cited from earlier work
[4] = test system: glucose carrier in human erythrocytes; conditions: human erythrocytes ref 29, 30; cited from earlier work
[5] = test system: KB3.1 (human cervix carcinoma); experiment: Cytotoxicity assay (MTT), KB3.1; format: cell-based; conditions: Homo sapiens, KB 3-1, 120 h, read-out: IC50 KB3.1
Procedure: as §1

[6] = 5 days of incubation, MTT, NC: no cytotoxic effect, or only weak inhibition of proliferation

| Compound | relative actin polymerization rate [1] | effect on F-actin network, low dose ([2]; 1 x IC50 (L929), 1 h) | effect on F-actin network, high dose 1 h ([2]; 1 h) | effect on actin and nuclei number, high dose 24 h [2] | IC50 (L929 (mouse fibroblast); [6]) [nM] | inhibitory activity on hKv1.5 [3] | inhibition of glucose transport [4] | IC50 (L929 (mouse fibroblast)) [nM] | IC50 [5] [nM] |
| --- | --- | --- | --- | --- | --- | --- | --- | --- | --- |
| C=C1[C@@H](C)[C@H]2[C@H](Cc3ccccc3)NC(=O)[C@]23OC(=O)/C=C/[C@H](O)CCC[C@@H](C)C/C=C/[C@H]3[C@@H]1O [Compound 2, cytochalasin B] | 45% | partially led to compromised lamellipodia and a reduction of intermittent, cytoplasmic F-actin | complete collapse of the F-actin network; also recorded: actin disruption | + multinucleation; also recorded: formation of multinucleated cells | 1300 | inhibitory activity | inhibits glucose transport |  |  |
| C=C1[C@@H](C)[C@H]2[C@H](Cc3ccccc3)N(C)C(=O)[C@]23OC(=O)/C=C/[C@H](O)CCC[C@@H](C)C/C=C/[C@H]3[C@@H]1O [Compound 4, N-methyl cytochalasin B] | 83% and 84–86% and 84% |  | only slight; also recorded: moderate effects | caused multinucleation, but left the actin network largely unchanged | > 10000 |  |  |  |  |
| C/C(=C\c1csc(C)n1)[C@@H]1C[C@@H]2O[C@]2(C)CCC[C@H](C)[C@H](O)[C@@H](C)C(=O)C(C)(C)[C@@H](O)CC(=O)O1 [Epothilone B, reference compound] |  |  |  |  |  |  |  | 0.58 | 0.095 |
